Test results reported in patent US20070213326A1, “SUBSTITUTED INDOLE COMPOUNDS AND THEIR USE AS 5-HT6 RECEPTOR MODULATORS” (LABORATORIOS DEL DR. ESTEVE S.A., priority 2004, published 2007).
Structures can show the parent of a compound that is named as a salt.

Columns and labels:
[1] = target: T1, 5HT6-human recombinant receptor (Homo sapiens, UniProt P50406); assay: Binding to serotonin receptor 5-HT6 ([H]-LSD radioligand, HEK-293 cell membranes); details: membranes of HEK-293 cells expressing 5HT6-human recombinant receptor; [H]-LSD 2.7 nM; 60 minutes at 37° C.
T1 construct: purchased Receptor Biology; host or cells: HEK-293 cells (membranes)
T1 sequence (P50406 whole entry): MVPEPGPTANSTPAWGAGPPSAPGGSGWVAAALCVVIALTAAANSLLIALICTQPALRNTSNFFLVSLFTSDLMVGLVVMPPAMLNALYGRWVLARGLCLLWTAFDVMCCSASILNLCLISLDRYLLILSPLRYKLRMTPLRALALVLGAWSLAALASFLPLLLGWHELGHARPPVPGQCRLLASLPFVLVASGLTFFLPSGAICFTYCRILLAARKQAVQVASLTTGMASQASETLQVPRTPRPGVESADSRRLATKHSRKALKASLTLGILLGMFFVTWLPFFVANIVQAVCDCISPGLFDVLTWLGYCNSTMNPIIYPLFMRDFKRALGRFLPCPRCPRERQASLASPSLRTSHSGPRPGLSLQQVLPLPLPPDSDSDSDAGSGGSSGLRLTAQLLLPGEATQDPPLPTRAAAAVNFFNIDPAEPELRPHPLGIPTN
Description: I) Binding to Serotonin Receptor 5-HT6
Cell membranes of HEK-293 cells expressing the 5HT6-human recombinant receptor were supplied by Receptor Biology. In said membranes the receptor concentration is 2.18 pmol/mg protein and the protein concentration is 9.17 mg/ml. The experimental protocol follows the method of B. L. Roth et al. [B. L. Roth, S. C. Craigo, M. S. Choudhary, A. Uluer, F. J. Monsma, Y. Shen, H. Y. Meltzer, D. R. Sibley: Binding of Typical and Atypical Antipsychotic Agents to 5-Hydroxytryptamine-6 and Hydroxytryptamine-7 Receptors. The Journal of Pharmacology and Experimental Therapeutics, 1994, 268, 1403] with the following slight changes. The respective part of the literature description is hereby incorporated by reference and forms part of the disclosure.
The commercial membrane is diluted (1:40 dilution) with the binding buffer: 50 mM Tris-HCl, 10 mM MgCl2, 0.5 mM EDTA (pH 7.4). The radioligand used is [H]-LSD at a concentration of 2.7 nM with a final volume of 200 μl. Incubation is initiated by adding 100 μl of membrane suspension, (≈22.9 μg membrane protein), and is prolonged for 60 minutes at a temperature of 37° C. The incubation is ended by fast filtration in a Brandel Cell Harvester through fiber glass filters made by Schleicher & Schuell G F 3362 pretreated with a solution of polyethylenimine at 0.5%. The filters are washed three times with three milliliters of buffer Tris-HCl 50 mM pH 7.4. The filters are transferred to flasks and 5 ml of Ecoscint H liquid scintillation cocktail are added to each flask. The flasks are allowed to reach equilibrium for several hours before counting with a Wallac Winspectral 1414 scintillation counter. Non-specific binding is determined in the presence of 100 μM of serotonin. Tests were made in triplicate. The inhibition constants (Ki, nM) were calculated by non-linear regression analysis using the program EBDA/LIGAND described in Munson and Rodbard, Analytical Biochemistry, 1980, 107, 220, the respective part of which is hereby incorporated by reference and forms part of the disclosure.
The binding of the substituted indole compounds to the 5-HT6 receptor was determined as described above.

Compound | melting point | Ki [1]
CCN(CC)CCc1c[nH]c2cc(NS(=O)(=O)c3cc(Cl)cc(Cl)c3)ccc12 | 79 to 85 °C | –
CN(C)CCc1c[nH]c2cc(NS(=O)(=O)c3ccc(Oc4ccccc4)cc3)ccc12 | 170 to 171 °C | –
CCN(CC)CCc1c[nH]c2cc(NS(=O)(=O)c3ccc4ccccc4c3)ccc12 | 146 to 147 °C | –
CN(C)CCc1c[nH]c2cccc(NS(=O)(=O)c3c(Cl)nc4sccn34)c12 | 216 °C | –
CCN(CC)CCc1c[nH]c2cc(NS(=O)(=O)c3cccc4c(Cl)cccc34)ccc12 | 86 to 90 °C | –
CN(C)CCc1c[nH]c2cc(NS(=O)(=O)c3ccc4ccccc4c3)ccc12 [Example 11, N-(3-(2-(dimethylamino)ethyl)-1H-indol-6-yl)naphthalene-2-sulfonamide] | 150 to 151 °C | 42.6 nM
CN(C)CCc1c[nH]c2cc(NS(=O)(=O)CCc3cccc4ccccc34)ccc12 | 90 °C | –
CN(C)CCc1c[nH]c2cccc(NS(=O)(=O)CCc3cccc4ccccc34)c12 (as salt: TFA) | 170 to 172 °C | –
CN(C)CCc1c[nH]c2cccc(NS(=O)(=O)c3ccc4c(Cl)cccc4c3)c12 | 198 to 200 °C | –
CCOC(CN(C)C)c1c[nH]c2cc(N(S(=O)(=O)c3sc4ccc(Cl)cc4c3C)S(=O)(=O)c3sc4ccc(Cl)cc4c3C)ccc12 (stereo not shown) | 208 °C | –
CN(C)CCc1c[nH]c2cc(N(S(=O)(=O)c3cc(Cl)cc(Cl)c3)S(=O)(=O)c3cc(Cl)cc(Cl)c3)ccc12 | 103 to 107 °C | –
CCOC(CN(C)C)c1c[nH]c2c(NS(=O)(=O)c3sc4ccc(Cl)cc4c3C)cccc12 (stereo not shown) | 145 °C | –
CCN(CC)CCc1c[nH]c2cc(NS(=O)(=O)c3ccc(-c4ccccc4)cc3)ccc12 | 81 to 85 °C | –
CN(C)CCc1c[nH]c2cc(NS(=O)(=O)c3ccc(-c4ccccc4)cc3)ccc12 | 164 to 168 °C | –
CCN(CC)CCc1c[nH]c2cc(NS(=O)(=O)c3c(Cl)nc4sccn34)ccc12 [Example 4, 6-chloro-N-(3-(2-(diethylamino)ethyl)-1H-indol-6-yl)imidazo[2,1-b]thiazole-5-sulfonamide] | 210 to 212 °C | 42.8 nM
CCN(CC)CCc1c[nH]c2c(N(S(=O)(=O)c3sc4ccc(Cl)cc4c3C)S(=O)(=O)c3sc4ccc(Cl)cc4c3C)cccc12 | 87 to 90 °C | –
CN(C)CCc1c[nH]c2cc(NS(=O)(=O)c3cccc4c(Cl)cccc34)ccc12 | 187 to 190 °C | –
Cc1c(S(=O)(=O)Nc2cccc3c(CCN(C)C)c[nH]c23)sc2ccc(Cl)cc12 | 130 to 140 °C | –

Compound | melting point | Ki [1]
CN(C)CCc1c[nH]c2cc(NS(=O)(=O)c3c(Cl)nc4sccn34)ccc12 [Example 13, 6-chloro-N-(3-(2-(dimethylamino)ethyl)-1H-indol-6-yl)imidazo[2,1-b]thiazole-5-sulfonamide] | 138 to 142 °C | 7.3 nM
CN(C)CCc1c[nH]c2cccc(NS(=O)(=O)c3cc(Cl)cc(Cl)c3)c12 | 212 to 215 °C | –
CCN(CC)CCc1c[nH]c2c(NS(=O)(=O)c3sc4ccc(Cl)cc4c3C)cccc12 | 79 to 84 °C | –
CN(C)CCc1c[nH]c2cc(N(S(=O)(=O)c3c(Cl)nc4sccn34)S(=O)(=O)c3c(Cl)nc4sccn34)ccc12 | 210 °C | –
CCOC(CN(CC)CC)c1c[nH]c2c(N(S(=O)(=O)c3sc4ccc(Cl)cc4c3C)S(=O)(=O)c3sc4ccc(Cl)cc4c3C)cccc12 (stereo not shown) | 155 to 156 °C | –
CN(C)CCc1c[nH]c2cccc(NS(=O)(=O)c3ccc(Oc4ccccc4)cc3)c12 | 78 to 82 °C | –
CN(C)CCc1c[nH]c2cccc(NS(=O)(=O)c3cccc4ccccc34)c12 | 223 to 225 °C | –
CN(C)CCc1c[nH]c2cccc(NS(=O)(=O)c3ccc4ccccc4c3)c12 | 165 to 168 °C | –
CCN(CC)CCc1c[nH]c2cc(NS(=O)(=O)c3ccc(Oc4ccccc4)cc3)ccc12 | 50 to 53 °C | –
CN(C)CCc1c[nH]c2cccc(NS(=O)(=O)c3ccc(-c4ccccc4)cc3)c12 | 182 to 184 °C | –
CN(C)CCc1c[nH]c2cc(N(S(=O)(=O)c3cc(Cl)c(Cl)s3)S(=O)(=O)c3cc(Cl)c(Cl)s3)ccc12 | 187 to 188 °C | –
CN(C)CCc1c[nH]c2cc(NS(=O)(=O)c3cccc4ccccc34)ccc12 [Example 12, N-(3-(2-(dimethylamino)ethyl)-1H-indol-6-yl)naphthalene-1-sulfonamide] | 167 to 168 °C | 31.1 nM
CCN(CC)CCc1c[nH]c2cc(NS(=O)(=O)c3cc(Cl)c(Cl)s3)ccc12 | 200 to 205 °C | –
Cc1c(S(=O)(=O)Nc2cccc3[nH]cc(CCN(C)C)c23)sc2ccc(Cl)cc12 | 235 to 236 °C | –
Cc1c(S(=O)(=O)N(c2cccc3c(CCN(C)C)c[nH]c23)S(=O)(=O)c2sc3ccc(Cl)cc3c2C)sc2ccc(Cl)cc12 | 110 to 120 °C | –
CN(C)CCc1c[nH]c2cc(NS(=O)(=O)c3cc(Cl)cc(Cl)c3)ccc12 | 96 to 98 °C | –
CN(C)CCc1c[nH]c2cc(NS(=O)(=O)c3cc(Cl)c(Cl)s3)ccc12 | 111 to 114 °C | –
CCN(CC)CCc1c[nH]c2cc(NS(=O)(=O)c3cccc4ccccc34)ccc12 | 183 to 187 °C | –
